Data reported in patent US9045491B2, “Thienyl [3,2-D] pyrimidin-4-one compounds, preparation method, pharmaceutical compositions and use thereof” (SHANGHAI INSTITUTE OF MATERIA MEDICA, CHINESE ACADEMY OF …, priority 2011, dated 2015).

Tests used:
Type in all cases: biochemical
Human DPP 9 = target: T1, Human DPP 9 (Homo sapiens, UniProt Q86TI2); experiment: DPP 9 activity screening (Ala-Pro-AMC fluorescence); conditions: N.I. = No Inhibition
T1 construct: made in house; host or cells: insect cells, baculovirus Bac-to-Bac
Text: (§1) Screening method: dipeptidyl peptidase IV (DPP IV) activity screening, dipeptidyl peptidase 7 (DPP 7), dipeptidyl peptidase 8 (DPP 8) activity screening, and dipeptidyl peptidase 9 (DPP 9) activity screening.
(§2) Materials: human DPP IV, obtained extracellular fragment of protease DPP IV (aa29-766), was expressed and purified by our laboratory using baculovirus expression system Bac-to-Bac (purchased from GIBCO company) in accordance with the conventional experimental technology; human DPP 8 was obtained in insect cells by our laboratory using baculovirus expression system Bac-to-Bac (purchased from GIBCO company) in accordance with the conventional experimental technology; Human DPP 9 was obtained in insect cells by our laboratory using baculovirus expression system Bac-to-Bac (purchased from GIBCO company) in accordance with the conventional experimental technology; and the substrate Ala-Pro-AMC was synthesized by GL Biochem (Shanghai) Ltd.
(§3) Principle of Activity test: DPP IV, DPP 8 and DPP 9 can specifically hydrolyze the substrate Ala-Pro-AMC to form product AMC, and AMC is excited by 355 nm of UV light to generate 460 nm of emission light. The linear change of fluorescence value at 460 nm in unit time was dynamically measured and DPP IV activity was obtained by calculation.
(§4) Sample treatment: the sample was dissolved in DMSO and stored in low temperature. The concentration of DMSO in the final system was controlled so that the detected activity was not affected.
(§5) The activity of sample was tested under the selected single concentration from preliminary screening, for example, 20 μg/mL. […] The software for calculation was Graphpad Prism 4 and the model used for fitting was sigmoidal dose-response (variable slope). For most inhibitor screening models, the bottom and top of the fitting curve were set to 0 and 100.

human DPP IV = target: T2, human DPP IV (Homo sapiens, UniProt P27487); experiment: DPP IV activity screening (Ala-Pro-AMC fluorescence)
T2 construct: extracellular fragment of protease DPP IV (aa29-766); made in house; host or cells: baculovirus expression system Bac-to-Bac
Description: as §1
Instruments: Microplate Reader (PerkinElmer, USA).
The linear change of fluorescence value at 460 nm in unit time was dynamically measured and DPP IV activity was obtained by calculation.
as §4, §5

[1] = target: dipeptidyl peptidase 7 (DPP 7) (Homo sapiens, UniProt Q9UHL4); experiment: DPP 7 activity screening; conditions: N.I. = No Inhibition
Description: as §1, §4, §5

human DPP 8 = target: T3, human DPP 8 (Homo sapiens, UniProt Q6V1X1); experiment: DPP 8 activity screening (Ala-Pro-AMC fluorescence); conditions: N.I. = No Inhibition
T3 construct: made in house; host or cells: insect cells, baculovirus Bac-to-Bac
Text: as §1, §2, §3, §4, §5

T3 sequence (Q6V1X1 whole entry): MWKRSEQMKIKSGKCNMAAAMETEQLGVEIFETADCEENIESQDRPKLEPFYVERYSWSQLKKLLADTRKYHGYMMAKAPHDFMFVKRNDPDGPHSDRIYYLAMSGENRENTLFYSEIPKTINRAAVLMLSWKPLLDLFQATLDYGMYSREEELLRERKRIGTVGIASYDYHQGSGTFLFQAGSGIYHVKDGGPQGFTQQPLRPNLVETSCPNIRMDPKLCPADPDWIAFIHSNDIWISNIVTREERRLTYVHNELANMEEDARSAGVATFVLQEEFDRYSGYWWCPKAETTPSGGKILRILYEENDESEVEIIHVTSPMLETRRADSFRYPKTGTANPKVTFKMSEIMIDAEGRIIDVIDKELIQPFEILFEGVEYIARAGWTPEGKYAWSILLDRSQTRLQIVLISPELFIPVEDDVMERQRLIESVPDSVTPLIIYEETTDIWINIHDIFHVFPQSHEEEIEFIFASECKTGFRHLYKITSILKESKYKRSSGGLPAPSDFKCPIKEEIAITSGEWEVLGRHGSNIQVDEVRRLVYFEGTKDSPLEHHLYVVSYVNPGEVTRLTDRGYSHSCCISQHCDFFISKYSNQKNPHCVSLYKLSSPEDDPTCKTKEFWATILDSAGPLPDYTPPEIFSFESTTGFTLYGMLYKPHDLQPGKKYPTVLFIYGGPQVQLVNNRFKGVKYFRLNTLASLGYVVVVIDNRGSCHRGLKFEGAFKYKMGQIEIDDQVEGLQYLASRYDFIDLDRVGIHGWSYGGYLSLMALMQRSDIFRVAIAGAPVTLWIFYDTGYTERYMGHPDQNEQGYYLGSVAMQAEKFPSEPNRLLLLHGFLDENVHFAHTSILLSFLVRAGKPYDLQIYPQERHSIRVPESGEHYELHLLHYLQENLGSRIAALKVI
T1 sequence (Q86TI2 whole entry): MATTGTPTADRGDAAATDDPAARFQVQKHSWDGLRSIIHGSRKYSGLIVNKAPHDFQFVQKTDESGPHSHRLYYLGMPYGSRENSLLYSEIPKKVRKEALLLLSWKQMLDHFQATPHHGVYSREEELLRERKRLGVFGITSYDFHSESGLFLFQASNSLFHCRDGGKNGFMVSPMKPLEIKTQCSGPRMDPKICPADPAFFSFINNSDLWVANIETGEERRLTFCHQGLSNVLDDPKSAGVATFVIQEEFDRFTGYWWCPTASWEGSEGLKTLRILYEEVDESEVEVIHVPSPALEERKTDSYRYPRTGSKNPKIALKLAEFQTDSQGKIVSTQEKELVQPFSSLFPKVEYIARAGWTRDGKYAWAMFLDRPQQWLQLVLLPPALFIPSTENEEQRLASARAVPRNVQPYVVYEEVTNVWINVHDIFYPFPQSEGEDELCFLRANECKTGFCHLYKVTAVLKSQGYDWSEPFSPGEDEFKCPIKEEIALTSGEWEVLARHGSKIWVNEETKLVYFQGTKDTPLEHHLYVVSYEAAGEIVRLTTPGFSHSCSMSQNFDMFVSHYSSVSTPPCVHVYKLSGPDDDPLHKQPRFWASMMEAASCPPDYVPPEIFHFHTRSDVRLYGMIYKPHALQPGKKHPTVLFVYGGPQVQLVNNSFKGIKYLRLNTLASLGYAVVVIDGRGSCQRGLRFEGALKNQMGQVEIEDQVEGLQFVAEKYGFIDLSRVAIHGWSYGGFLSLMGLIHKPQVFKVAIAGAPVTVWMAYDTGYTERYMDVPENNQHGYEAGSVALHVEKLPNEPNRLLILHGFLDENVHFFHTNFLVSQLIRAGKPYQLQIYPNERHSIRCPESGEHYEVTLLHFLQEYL
T2 sequence (P27487 29-766): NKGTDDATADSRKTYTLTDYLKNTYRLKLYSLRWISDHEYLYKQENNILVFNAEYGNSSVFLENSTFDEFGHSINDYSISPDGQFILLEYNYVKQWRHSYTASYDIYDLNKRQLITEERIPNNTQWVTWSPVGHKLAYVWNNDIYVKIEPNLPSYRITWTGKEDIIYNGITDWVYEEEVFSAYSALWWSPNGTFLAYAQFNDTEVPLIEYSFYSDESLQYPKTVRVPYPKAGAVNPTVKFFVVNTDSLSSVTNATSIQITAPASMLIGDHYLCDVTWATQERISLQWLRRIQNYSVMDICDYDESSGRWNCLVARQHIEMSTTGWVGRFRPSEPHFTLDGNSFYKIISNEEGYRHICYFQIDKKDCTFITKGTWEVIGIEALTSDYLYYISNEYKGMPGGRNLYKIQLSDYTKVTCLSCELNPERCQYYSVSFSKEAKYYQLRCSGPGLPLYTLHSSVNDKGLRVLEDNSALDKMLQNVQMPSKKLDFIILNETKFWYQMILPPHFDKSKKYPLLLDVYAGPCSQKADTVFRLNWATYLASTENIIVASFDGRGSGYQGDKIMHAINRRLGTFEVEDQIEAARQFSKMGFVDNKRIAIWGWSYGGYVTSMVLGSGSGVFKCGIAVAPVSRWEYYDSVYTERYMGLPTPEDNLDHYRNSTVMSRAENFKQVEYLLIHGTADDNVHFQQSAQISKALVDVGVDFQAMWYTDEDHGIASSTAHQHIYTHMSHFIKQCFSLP

DPP 9 IC50 (Human DPP 9)	IC50 (human DPP IV) [nM]	DPP 7 IC50 [1]	IC50 (human DPP 8) [nM]	IC50 (Human DPP 9) [nM]	DPP 8 IC50 (human DPP 8)	SMILES
N.I.	14.3	N.I.	102000			CS(=O)(=O)CCNC(=O)c1csc2c(=O)n(Cc3ccccc3C#N)c(N3CCC[C@@H](N)C3)nc12 [Compound 90, (R)-2-(3-aminopiperidin-1-yl)-3-(2-cyanobenzyl)-N-(2-(methylsulfonyl)-ethyl)-4-oxo-3,4-dihydrothieno[3,2-d]-pyrimidine-7-carboxamide]
N.I.	20.1	N.I.	55900			CS(=O)(=O)CCNC(=O)c1cc2nc(N3CCC[C@@H](N)C3)n(Cc3ccccc3C#N)c(=O)c2s1 [Compound 126, (R)-2-(3-aminopiperidin-1-yl)-3-(2-cyanobenzyl)-N-(2-(methylsulfonyl)-ethyl)-4-oxo-3,4-dihydrothieno[3,2-d]-pyrimidine-6-carboxamide]
N.I.	30.7	N.I.	39000			N#Cc1ccccc1Cn1c(N2CCC[C@@H](N)C2)nc2cc(C(=O)N3CCC[C@H]3CO)sc2c1=O [Compound 128, 2-((2-((R)-3-aminopiperidin-1-yl)-6-((S)-2-(hydroxymethyl)pyrrolidine-1-carbonyl)-4-oxothieno[3,2-d]pyrimidin-3(4H)-yl)methyl)benzonitrile]
	33.8	N.I.	15500	172000		COC(=O)[C@@H]1CCCN1C(=O)c1cc2nc(N3CCC[C@@H](N)C3)n(Cc3ccccc3C#N)c(=O)c2s1 [Compound 125, (S)-methyl 1-(2-((R)-3-aminopiperidin-1-yl)-3-(2-cyanobenzyl)-4-oxo-3,4-dihydrothieno[3,2-d]pyrimidine-6-carbonyl)pyrrolidine-2-carboxylate]
N.I.	26.5	N.I.			N.I.	N#Cc1ccccc1Cn1c(N2CCC[C@@H](N)C2)nc2c(CO[C@H]3CCOC3)csc2c1=O [Compound 87, 2-((2-((R)-3-aminopiperidin-1-yl)-4-oxo-7-((((S)-tetrahydrofuran-3-yl)oxy)methyl)thieno[3,2-d]pyrimidin-3(4H)-yl)methyl)benzonitrile]
	35.5					N#Cc1ccccc1Cn1c(N2CCC[C@@H](N)C2)nc2c3c(sc2c1=O)CCCC3 [Compound 27, (R)-2-((2-(3-aminopiperidin-1-yl)-4-oxo-6,7,8,9-tetrahydrobenzo[4,5]thieno-[3,2-d]pyrimidin-3(4H)-yl)methyl)-benzonitrile]
N.I.	33.9	N.I.	16300			CCOC(=O)C1CCN(C(=O)c2cc3nc(N4CCC[C@@H](N)C4)n(Cc4ccccc4C#N)c(=O)c3s2)CC1 [Compound 129, (R)-ethyl 1-(2-(3-aminopiperidin-1-yl)-3-(2-cyanobenzyl)-4-oxo-3,4-dihydrothieno[3,2-d]pyrimidine-6-carbonyl)piperidine-4-carboxylate]
	45.6					N#Cc1ccccc1Cn1c(N2CCC[C@@H](N)C2)nc2cc(Cl)sc2c1=O [Compound 8, (R)-2-((2-(3-aminopiperidin-1-yl)-6-chloro-4-oxothieno[3,2-d]pyrimidin-3 (4H)-yl)methyl)benzonitrile]
N.I.	36.4	N.I.	88000			COC(=O)[C@@H]1CCCN1C(=O)c1csc2c(=O)n(Cc3ccccc3C#N)c(N3CCC[C@@H](N)C3)nc12 [Compound 91, (S)-methyl 1-(2-((R)-3-aminopiperidin-1-yl)-3-(2-cyanobenzyl)-4-oxo-3,4-dihydrothieno[3,2-d]pyrimidine-7-carbonyl)pyrrolidine-2-carboxylate]
	8.78					N#Cc1ccccc1Cn1c(N2CCC[C@@H](N)C2)nc2c(Br)csc2c1=O [Compound 4, (R)-2-((2-(3-aminopiperidin-1-yl)-7-bromo-4-oxothieno[3,2-d]pyrimidin-3(4H)-yl)methyl)benzonitrile]
	36.8					N#Cc1ccccc1Cn1c(N2CCC[C@@H](N)C2)nc2c(Cl)csc2c1=O [Compound 9, (R)-2-((2-(3-aminopiperidin-1-yl)-7-chloro-4-oxothieno[3,2-d]pyrimidin-3-(4H)-yl)methyl)benzonitrile]
N.I.	26.9	N.I.	43900			N#Cc1ccccc1Cn1c(N2CCC[C@@H](N)C2)nc2cc(C(=O)N3CCC(CO)CC3)sc2c1=O [Compound 124, (R)-2-((2-(3-aminopiperidin-1-yl)-6-(4-(hydroxymethyl)piperidine-1-carbonyl)-4-oxothieno[3,2-d]pyrimidin-3(4H)-yl)methyl)benzonitrile]
	90					N#Cc1ccccc1Cn1c(N2CCC[C@@H](N)C2)nc2c(Cl)c(Cl)sc2c1=O [Compound 10, (R)-2-((2-(3-aminopiperidin-1-yl)-6,7-dichloro-4-oxothieno[3,2-d]pyrimidin-3(4H)-yl)methyl)benzonitrile]
N.I.	21.7	N.I.	76700			N#Cc1ccccc1Cn1c(N2CCC[C@@H](N)C2)nc2c(C(=O)N[C@H]3CCOC3=O)csc2c1=O [Compound 92, 2-((R)-3-aminopiperidin-1-yl)-3-(2-cyanobenzyl)-4-oxo-N-((S)-2-oxotetrahydrofuran-3-yl)-3,4-dihydrothieno[3,2-d]pyrimidine-7-carboxamide]
N.I.	14.8	N.I.	60700			N#Cc1ccccc1Cn1c(N2CCC[C@@H](N)C2)nc2c(C(=O)NCCCO)csc2c1=O [Compound 93, (R)-2-(3-aminopiperidin-1-yl)-3-(2-cyanobenzyl)-N-(3-hydroxypropyl)-4-oxo-3,4-dihydrothieno[3,2-d]pyrimidine-7-carboxamide]
N.I.	24.6	N.I.	52700			N#Cc1ccccc1Cn1c(N2CCC[C@@H](N)C2)nc2cc(C(=O)N[C@H]3CCOC3=O)sc2c1=O [Compound 127, 2-((R)-3-aminopiperidin-1-yl)-3-(2-cyanobenzyl)-4-oxo-N-((S)-2-oxotetrahydrofuran-3-yl)-3,4-dihydrothieno[3,2-d]pyrimidine-6-carboxamide]
	34.7					N#Cc1ccccc1Cn1c(N2CCC[C@@H](N)C2)nc2cc(F)sc2c1=O [Compound 1, (R)-2-((2-(3-aminopiperidin-1-yl)-6-fluoro-4-oxothieno[3,2-d]pyrimidin-3(4H)-yl)methyl)benzonitrile]
N.I.	14.3	N.I.	39400			CCOC(=O)CCCNC(=O)c1csc2c(=O)n(Cc3ccccc3C#N)c(N3CCC[C@@H](N)C3)nc12 [Compound 89, (R)-ethyl 4-(2-(3-aminopiperidin-1-yl)-3-(2-cyanobenzyl)-4-oxo-3,4-dihydrothieno[3,2-d]pyrimidine-7-carboxamido)butanoate]

SMILES	DPP 9 IC50 (Human DPP 9)	IC50 (human DPP IV) [nM]	DPP 7 IC50 [1]	IC50 (human DPP 8) [nM]	IC50 (Human DPP 9) [nM]	DPP 8 IC50 (human DPP 8)
N#Cc1ccccc1Cn1c(N2CCC[C@@H](N)C2)nc2cc(C(Br)Br)sc2c1=O [Compound 98, (R)-2-((2-(3-aminopiperidin-1-yl)-6-(dibromomethyl)-4-oxothieno[3,2-d]-pyrimidin-3(4H)-yl)methyl)benzonitrile]		9.95	N.I.			
